In ChEMBL document CHEMBL4130348, “Structure-activity relationship investigation for benzonaphthyridinone derivatives as novel potent Bruton's tyrosine kinase (BTK) irreversible inhibitors” (Eur J Med Chem, 2017):

Columns and labels:
[1] = target: T1, Tyrosine-protein kinase JAK3 (Homo sapiens, UniProt P52333); test: Inhibition of recombinant GST-tagged human JAK3 expressed in baculovirus expression system using poly (4:1 Glu, Tyr) as substrate preincubated for 1 hr followed by substrate addition measured after 1 hr by ADP-glo assay
T1 sequence (P52333 whole entry): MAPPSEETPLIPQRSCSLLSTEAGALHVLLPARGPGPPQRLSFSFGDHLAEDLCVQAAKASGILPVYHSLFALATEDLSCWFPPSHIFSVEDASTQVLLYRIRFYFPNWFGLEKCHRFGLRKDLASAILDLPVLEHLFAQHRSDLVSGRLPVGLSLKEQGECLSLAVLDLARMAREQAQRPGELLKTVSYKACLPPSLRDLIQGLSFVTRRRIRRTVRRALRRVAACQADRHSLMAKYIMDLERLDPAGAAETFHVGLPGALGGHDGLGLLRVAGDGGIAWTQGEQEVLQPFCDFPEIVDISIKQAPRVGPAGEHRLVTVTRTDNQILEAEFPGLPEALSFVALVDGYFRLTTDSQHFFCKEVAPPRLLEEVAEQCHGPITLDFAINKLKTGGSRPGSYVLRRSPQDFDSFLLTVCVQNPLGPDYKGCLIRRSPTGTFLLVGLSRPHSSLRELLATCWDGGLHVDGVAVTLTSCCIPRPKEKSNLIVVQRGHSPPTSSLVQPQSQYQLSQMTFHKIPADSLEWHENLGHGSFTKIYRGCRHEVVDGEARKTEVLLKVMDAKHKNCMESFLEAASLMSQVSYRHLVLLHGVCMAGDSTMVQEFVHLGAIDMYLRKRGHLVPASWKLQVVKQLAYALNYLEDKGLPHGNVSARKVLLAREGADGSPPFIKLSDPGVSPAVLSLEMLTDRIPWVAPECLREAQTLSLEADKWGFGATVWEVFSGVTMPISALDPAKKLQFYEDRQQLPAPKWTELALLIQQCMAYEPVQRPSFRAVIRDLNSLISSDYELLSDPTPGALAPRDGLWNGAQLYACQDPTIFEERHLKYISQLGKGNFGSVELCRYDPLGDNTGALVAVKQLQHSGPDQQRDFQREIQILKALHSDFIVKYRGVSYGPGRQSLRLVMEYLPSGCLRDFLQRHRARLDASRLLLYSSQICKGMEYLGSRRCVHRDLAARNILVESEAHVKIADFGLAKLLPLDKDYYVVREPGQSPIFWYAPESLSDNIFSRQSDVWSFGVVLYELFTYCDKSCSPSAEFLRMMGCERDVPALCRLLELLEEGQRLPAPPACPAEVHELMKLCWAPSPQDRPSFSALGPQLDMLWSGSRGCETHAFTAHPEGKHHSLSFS

[2] = target: Epidermal growth factor receptor (Homo sapiens) (UniProt P00533); test: Inhibition of TEL-fused EGFR (unknown origin) expressed in mouse BA/F3 cells after 72 hrs by CellTiter-Glo assay; format: cell-based
[3] = system: Epidermal growth factor receptor (Homo sapiens), P00533 [T790M]; test: Inhibition of TEL-fused EGFR T790M mutant (unknown origin) expressed in mouse BA/F3 cells after 72 hrs by CellTiter-Glo assay; format: cell-based
Epidermal growth factor receptor (Homo sapiens), P00533 [T790M], sequence (P00533 whole entry T790M, the tested form may be a part): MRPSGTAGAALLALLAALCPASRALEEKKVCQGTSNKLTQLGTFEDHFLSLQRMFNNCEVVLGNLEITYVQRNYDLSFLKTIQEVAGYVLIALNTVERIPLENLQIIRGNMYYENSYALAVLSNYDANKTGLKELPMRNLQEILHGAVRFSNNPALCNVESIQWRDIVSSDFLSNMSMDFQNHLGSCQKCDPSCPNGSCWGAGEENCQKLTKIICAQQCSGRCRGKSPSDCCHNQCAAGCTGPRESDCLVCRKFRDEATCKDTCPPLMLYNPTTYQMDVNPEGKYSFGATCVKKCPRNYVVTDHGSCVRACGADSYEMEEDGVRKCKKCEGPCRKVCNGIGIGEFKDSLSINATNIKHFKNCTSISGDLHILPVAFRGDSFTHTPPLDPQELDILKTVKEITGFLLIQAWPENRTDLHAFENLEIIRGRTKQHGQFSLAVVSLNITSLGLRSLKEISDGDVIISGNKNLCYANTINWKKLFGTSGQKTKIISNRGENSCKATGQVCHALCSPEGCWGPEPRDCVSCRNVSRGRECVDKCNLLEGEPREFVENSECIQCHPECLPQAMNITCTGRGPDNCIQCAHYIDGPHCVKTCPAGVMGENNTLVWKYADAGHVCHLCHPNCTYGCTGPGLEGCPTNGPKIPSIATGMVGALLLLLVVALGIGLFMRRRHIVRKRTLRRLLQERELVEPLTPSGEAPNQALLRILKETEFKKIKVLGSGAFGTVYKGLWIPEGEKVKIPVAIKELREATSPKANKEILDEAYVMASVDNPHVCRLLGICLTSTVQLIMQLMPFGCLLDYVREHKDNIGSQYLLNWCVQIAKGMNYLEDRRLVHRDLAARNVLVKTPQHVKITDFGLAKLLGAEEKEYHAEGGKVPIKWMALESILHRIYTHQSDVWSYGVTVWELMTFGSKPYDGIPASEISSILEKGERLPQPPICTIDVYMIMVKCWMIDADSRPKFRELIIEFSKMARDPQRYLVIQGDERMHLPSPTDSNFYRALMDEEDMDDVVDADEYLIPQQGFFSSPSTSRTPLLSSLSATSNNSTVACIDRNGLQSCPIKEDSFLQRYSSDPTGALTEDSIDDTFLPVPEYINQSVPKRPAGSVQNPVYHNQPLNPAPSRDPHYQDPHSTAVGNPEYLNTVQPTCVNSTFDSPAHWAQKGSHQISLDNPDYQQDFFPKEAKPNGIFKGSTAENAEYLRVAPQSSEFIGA

[4] = system: Epidermal growth factor receptor (Homo sapiens), P00533 [L858R,T790M]; test: Inhibition of TEL-fused EGFR T790M/L858R mutant (unknown origin) expressed in mouse BA/F3 cells after 72 hrs by CellTiter-Glo assay; format: cell-based
Epidermal growth factor receptor (Homo sapiens), P00533 [L858R,T790M], sequence (P00533 whole entry T790M/L858R, looked up, the tested form may be a part): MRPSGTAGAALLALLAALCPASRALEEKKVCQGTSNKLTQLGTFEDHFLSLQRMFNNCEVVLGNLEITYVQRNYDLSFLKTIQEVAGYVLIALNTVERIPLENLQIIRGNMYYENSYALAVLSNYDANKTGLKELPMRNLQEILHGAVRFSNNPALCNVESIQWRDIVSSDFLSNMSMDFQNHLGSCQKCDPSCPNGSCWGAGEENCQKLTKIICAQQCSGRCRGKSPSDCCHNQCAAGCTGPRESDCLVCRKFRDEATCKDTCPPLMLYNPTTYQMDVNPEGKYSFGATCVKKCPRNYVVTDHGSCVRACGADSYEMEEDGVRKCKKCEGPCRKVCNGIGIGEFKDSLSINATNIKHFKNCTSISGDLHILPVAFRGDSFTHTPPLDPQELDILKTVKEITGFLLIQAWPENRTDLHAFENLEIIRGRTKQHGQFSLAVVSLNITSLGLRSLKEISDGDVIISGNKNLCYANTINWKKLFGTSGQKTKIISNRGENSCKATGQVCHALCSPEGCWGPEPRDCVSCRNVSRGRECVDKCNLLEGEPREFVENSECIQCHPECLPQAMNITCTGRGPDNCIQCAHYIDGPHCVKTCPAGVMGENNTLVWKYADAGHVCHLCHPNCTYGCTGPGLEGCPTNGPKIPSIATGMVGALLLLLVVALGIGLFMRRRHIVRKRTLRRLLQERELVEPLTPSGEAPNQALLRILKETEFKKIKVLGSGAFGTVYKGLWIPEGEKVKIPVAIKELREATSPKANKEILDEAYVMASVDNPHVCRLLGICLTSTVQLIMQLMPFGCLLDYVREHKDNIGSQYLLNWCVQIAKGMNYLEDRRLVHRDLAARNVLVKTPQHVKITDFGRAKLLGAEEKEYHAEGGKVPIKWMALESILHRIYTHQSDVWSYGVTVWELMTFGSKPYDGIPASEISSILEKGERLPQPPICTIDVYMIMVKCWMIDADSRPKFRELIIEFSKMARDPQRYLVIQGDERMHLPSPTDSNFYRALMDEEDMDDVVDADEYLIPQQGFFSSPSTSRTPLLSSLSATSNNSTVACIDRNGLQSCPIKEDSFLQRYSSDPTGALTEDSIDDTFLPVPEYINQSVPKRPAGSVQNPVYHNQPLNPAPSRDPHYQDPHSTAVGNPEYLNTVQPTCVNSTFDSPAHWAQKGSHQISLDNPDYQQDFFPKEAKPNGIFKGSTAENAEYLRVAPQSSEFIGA

[5] = target: Tyrosine-protein kinase JAK2 (Homo sapiens) (UniProt O60674); test: Inhibition of TEL-fused JAK2 (unknown origin) expressed in mouse BA/F3 cells after 72 hrs by CellTiter-Glo assay; format: cell-based
Tyrosine-protein kinase JAK2 (Homo sapiens), sequence (O60674 whole entry, the tested form may be a part): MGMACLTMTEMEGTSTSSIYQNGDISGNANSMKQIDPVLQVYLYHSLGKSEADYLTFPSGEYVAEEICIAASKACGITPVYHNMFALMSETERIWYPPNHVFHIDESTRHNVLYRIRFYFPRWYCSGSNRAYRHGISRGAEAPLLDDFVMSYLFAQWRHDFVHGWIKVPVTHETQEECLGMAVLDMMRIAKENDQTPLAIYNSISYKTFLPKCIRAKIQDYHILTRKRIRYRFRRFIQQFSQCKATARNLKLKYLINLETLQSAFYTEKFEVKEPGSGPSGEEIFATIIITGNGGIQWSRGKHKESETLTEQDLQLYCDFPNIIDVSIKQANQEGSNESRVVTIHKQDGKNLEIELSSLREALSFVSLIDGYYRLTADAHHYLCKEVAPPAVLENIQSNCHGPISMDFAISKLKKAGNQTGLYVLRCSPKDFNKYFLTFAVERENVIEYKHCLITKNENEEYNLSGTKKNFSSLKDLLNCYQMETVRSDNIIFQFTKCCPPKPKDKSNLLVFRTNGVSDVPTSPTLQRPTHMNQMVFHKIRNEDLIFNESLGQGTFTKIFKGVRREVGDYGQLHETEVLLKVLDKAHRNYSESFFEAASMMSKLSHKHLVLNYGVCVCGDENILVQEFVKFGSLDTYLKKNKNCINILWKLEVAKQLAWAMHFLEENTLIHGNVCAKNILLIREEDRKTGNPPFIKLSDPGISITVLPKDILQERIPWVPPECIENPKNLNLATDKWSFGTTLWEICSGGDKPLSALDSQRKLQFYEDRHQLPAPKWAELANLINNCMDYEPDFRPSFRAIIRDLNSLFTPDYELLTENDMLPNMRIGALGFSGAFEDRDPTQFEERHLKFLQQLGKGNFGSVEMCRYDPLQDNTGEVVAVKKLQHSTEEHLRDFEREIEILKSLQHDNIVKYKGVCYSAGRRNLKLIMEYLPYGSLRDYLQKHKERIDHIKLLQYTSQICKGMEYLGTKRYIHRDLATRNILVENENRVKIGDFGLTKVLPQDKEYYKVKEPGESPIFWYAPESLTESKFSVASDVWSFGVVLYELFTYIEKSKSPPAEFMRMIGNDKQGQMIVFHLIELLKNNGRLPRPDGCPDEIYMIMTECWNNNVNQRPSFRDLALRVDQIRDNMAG

HCT-116 = test: Antiproliferative activity against human HCT116 cells after 72 hrs by CellTiter-Glo assay; format: functional; conditions: HCT-116, 72 h
A-431 = test: Antiproliferative activity against human A431 cells after 72 hrs by CellTiter-Glo assay; format: functional; conditions: A-431, 72 h
A549 = test: Antiproliferative activity against human A549 cells after 72 hrs by CellTiter-Glo assay; format: functional; conditions: A549, 72 h
NCI-H358 = test: Antiproliferative activity against human NCI-H358 cells after 72 hrs by CellTiter-Glo assay; format: functional; conditions: NCI-H358, 72 h
NCI-H1975 = test: Antiproliferative activity against human NCI-H1975 cells after 72 hrs by CellTiter-Glo assay; format: functional; conditions: NCI-H1975, 72 h
HeLa = test: Antiproliferative activity against human HeLa cells after 72 hrs by CellTiter-Glo assay; format: functional
DU-145 = test: Antiproliferative activity against human DU145 cells after 72 hrs by CellTiter-Glo assay; format: functional; conditions: DU-145, 72 h
LNCaP C4-2 = test: Antiproliferative activity against human C4-2 cells after 72 hrs by CellTiter-Glo assay; format: functional; conditions: LNCaP C4-2, 72 h
SU-DHL-2 = test: Antiproliferative activity against human SUDHL2 cells after 72 hrs by CellTiter-Glo assay; format: functional; conditions: SU-DHL-2, 72 h
U2932 = test: Antiproliferative activity against human U2932 cells after 72 hrs by CellTiter-Glo assay; format: functional; conditions: U2932, 72 h
Pfeiffer = test: Antiproliferative activity against human Pfeiffer cells after 72 hrs by CellTiter-Glo assay; format: functional
NALM-6 = test: Antiproliferative activity against human NALM6 cells after 72 hrs by CellTiter-Glo assay; format: functional; conditions: NALM-6, 72 h
U-937 = test: Antiproliferative activity against human U937 cells after 72 hrs by CellTiter-Glo assay; format: functional; conditions: U-937, 72 h
[6] = Antiproliferative activity against human PF138 cells after 72 hrs by CellTiter-Glo assay; format: functional
MOLM-13 = test: Antiproliferative activity against human MOLM13 cells after 72 hrs by CellTiter-Glo assay; format: functional; conditions: MOLM-13, 72 h
[7] = Antiproliferative activity against human MOLM16 cells after 72 hrs by CellTiter-Glo assay; format: functional; conditions: MOLM16, 72 h
NB-4 = test: Antiproliferative activity against human NB4 cells after 72 hrs by CellTiter-Glo assay; format: functional; conditions: NB-4, 72 h
CMK = test: Antiproliferative activity against human CMK cells after 72 hrs by CellTiter-Glo assay; format: functional
NOMO-1 = test: Antiproliferative activity against human NOMO1 cells after 72 hrs by CellTiter-Glo assay; format: functional; conditions: NOMO-1, 72 h
OCI-AML2 = test: Antiproliferative activity against human OCI-AML2 cells after 72 hrs by CellTiter-Glo assay; format: functional; conditions: OCI-AML2, 72 h
Rec1 = test: Antiproliferative activity against human Rec1 cells after 72 hrs by CellTiter-Glo assay; format: functional; conditions: Rec1, 72 h
cells [8] = format: functional; conditions: Homo sapiens, CLL cell, 72 h
cells [9] = format: functional; conditions: Homo sapiens, CLL cell, 72 h; remark: listed apart in the source
cells [10] = format: functional; conditions: Homo sapiens, CLL cell, 72 h; remark: listed apart in the source
[11] = target: Cytoplasmic tyrosine-protein kinase BMX (Homo sapiens) (UniProt P51813)
Cytoplasmic tyrosine-protein kinase BMX (Homo sapiens), sequence (P51813 whole entry): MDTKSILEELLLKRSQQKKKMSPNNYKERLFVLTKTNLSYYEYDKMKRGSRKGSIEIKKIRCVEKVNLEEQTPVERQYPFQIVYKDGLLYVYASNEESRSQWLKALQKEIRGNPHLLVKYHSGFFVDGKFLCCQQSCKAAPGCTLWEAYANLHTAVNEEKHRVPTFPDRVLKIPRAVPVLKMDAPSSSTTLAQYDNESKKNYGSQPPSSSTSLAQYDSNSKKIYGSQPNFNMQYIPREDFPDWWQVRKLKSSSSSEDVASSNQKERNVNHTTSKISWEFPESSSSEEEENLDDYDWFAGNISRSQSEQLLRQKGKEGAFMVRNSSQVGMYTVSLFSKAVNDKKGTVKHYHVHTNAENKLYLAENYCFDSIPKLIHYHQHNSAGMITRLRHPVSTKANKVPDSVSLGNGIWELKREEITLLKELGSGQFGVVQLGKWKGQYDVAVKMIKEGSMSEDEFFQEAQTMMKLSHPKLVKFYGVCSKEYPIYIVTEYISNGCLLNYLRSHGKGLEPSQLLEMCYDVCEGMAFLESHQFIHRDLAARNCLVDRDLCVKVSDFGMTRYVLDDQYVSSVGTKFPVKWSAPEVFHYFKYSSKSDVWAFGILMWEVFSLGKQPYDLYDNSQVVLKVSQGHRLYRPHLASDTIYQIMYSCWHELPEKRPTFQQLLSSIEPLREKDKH
Description: Inhibition of TEL-fused BMX (unknown origin) expressed in mouse BA/F3 cells after 72 hrs by CellTiter-Glo assay

| SMILES | IC50 [1] [µM] | GI50 [2] [µM] | GI50 [3] [µM] | GI50 [4] [µM] | GI50 [5] [µM] | GI50 (HCT-116) [µM] | GI50 (A-431) [µM] | GI50 (A549) [µM] | GI50 (NCI-H358) [µM] | GI50 (NCI-H1975) [µM] | GI50 (HeLa) [µM] | GI50 (DU-145) [µM] | GI50 (LNCaP C4-2) [µM] | GI50 (SU-DHL-2) [µM] | GI50 (U2932) [µM] | GI50 (Pfeiffer) [µM] | GI50 (NALM-6) [µM] | GI50 (U-937) [µM] | GI50 [6] [µM] | GI50 (MOLM-13) [µM] | further results |
| --- | --- | --- | --- | --- | --- | --- | --- | --- | --- | --- | --- | --- | --- | --- | --- | --- | --- | --- | --- | --- | --- |
| CCC(=O)Nc1cc(-n2c(=O)ccc3cnc4ccc(-n5cccn5)cc4c32)ccc1C | > 10 | > 10 | > 10 | > 10 | > 10 | > 10 | > 10 | > 10 | > 10 | > 10 | > 10 | > 10 | > 10 | > 10 | > 10 | > 10 | > 10 | > 10 | > 10 | > 10 | GI50 [7]: > 10 µM; GI50 (NB-4): > 10 µM; GI50 (CMK): > 10 µM; GI50 (NOMO-1): > 10 µM; GI50 (OCI-AML2): > 10 µM; GI50 (Rec1): > 10 µM; GI50 (cells [8]): > 10 µM; GI50 (cells [9]): > 10 µM; GI50 (cells [10]): > 10 µM; GI50 [11]: > 10 µM |
| C=CC(=O)Nc1cc(-n2c(=O)ccc3cnc4ccc(-n5cccn5)cc4c32)ccc1C | > 10 | 2.66 | 0.918 | 1.59 | 2.1 | > 10 | 5.1 | 3.7 | > 10 | 5.57 | > 10 | > 10 | > 10 | > 10 | 7.9 | 5.8 | 1.17 | > 10 | 8.8 | 0.59 | GI50 [7]: 1.4 µM; GI50 (NB-4): 3.7 µM; GI50 (CMK): 4.3 µM; GI50 (NOMO-1): 4.9 µM; GI50 (OCI-AML2): 7.8 µM; GI50 (Rec1): 1.6 µM; GI50 (cells [8]): 10.3 µM; GI50 (cells [9]): 2.4 µM; GI50 (cells [10]): 2.9 µM; GI50 [11]: 0.018 µM |
